Laboratory results from patent US6642251B1, “Geometrically restricted 2-indolinone derivatives as modulators of protein kinase activity” (Sugen, Inc., priority 1998, dated 2003).
Several values for one entry are separate records, joined by “and”; a condition that tells them apart may be missing. Equal values may be shown once. Read-outs that look alike come from different tables or passages of the source.

Legend:
[1] = target: T1, PDGFR (Homo sapiens, UniProt P09619); assay: Biochemical PDGFR assay (bio PDGFR), ELISA
T1 construct: expressed in transfected cells; host or cells: NIH 3T3
Description: This assay measures the in vitro kinase activity of PDGFR using ELISA.
6. PDGFR-β expressing NIH 3T3 cell lysate (Screening Lab, SUGEN, Inc.).
1. Coat Corning 96 well ELISA plates with 0.5 μg 28D4C10 in 100 μl PBS per well, store overnight at 4° C.
2. Remove unbound 28D4C10 from wells by inverting plate to remove liquid. Wash 1× with dH2O. Pat the plate on a paper towel to remove excess liquid.
(§1) 3. Add 150 μl of Blocking Buffer to each well. Incubate for 30 min. at room temperature with shaking.
(§2) 4. Wash plate 3× with deionized water, then once with TBST. Pat plate on a paper towel to remove excess liquid and bubbles.
5. Dilute lysate in HNTG (10 μg lysate/100 μl HNTG)
(§3) 6. Add 100 μl of diluted lysate to each well. Shake at room temperature for 60 min.
(§4) 7. Wash plates as described in 4, above.
8. Add 80 μl working kinase buffer mix to ELISA plate containing captured PDGFR.
10. Add 10 μl diluted test compound to ELISA plate.
(§5) 11. Incubate for 30 minutes while shaking at room temperature.
12. Add 10 μl ATP directly to all wells except negative control well (final well volume should be approximately 100 μl with 20 μM ATP in each well.) Incubate 30 minutes while shaking.
13. After 30 minutes, stop reaction by adding 10 μl of 200 mM EDTA (pH 8.0) to each well.
(§6) 14. Wash 4× with deionized water, twice with TBST.
15. Add 100 μl anti-phosphotyrosine (1:3000 dilution in TBST) per well. Incubate 30-45 min. at room temperature, with shaking.
(§7) 16. Wash as described in 4, above.
17. […] Incubate 30 min. at room temperature, with shaking.
(§8) 18. Wash as described in 4, above.
(§9) 19. Add 100 μl of ABTS/H2O2 solution to each well.
20. Incubate 10 to 30 minutes with shaking. Remove any bubbles.
(§10) 21. If necessary stop reaction with the addition of 100 μl 0.2 M HCl per well.

[2] = target: Pyk2 (Homo sapiens, UniProt Q14289); assay: Pyk2 assay; format: biochemical; as to Pyk2, outcome of primary assay: key: DNH = did not hit in primary assay
[3] = target: EGFR (Homo sapiens, UniProt P00533); assay: Biochemical EGFR assay (bio EGFR), ELISA; design: A431 cell lysate (Screening Lab, SUGEN, Inc.); endogenous in cells; host or cells: A431; settings: 50% inhibition of target PTK activity; read-out: bio EGFR (Page 5) IC50
Description: This assay measures the in vitro kinase activity of EGFR using ELISA.
6. A431 cell lysate (Screening Lab, SUGEN, Inc.)
1. Coat Corning 96 well ELISA plates with 0.5 μg […] in
100 μl PBS per well, store overnight at 4° C.
2. Remove unbound SUMO1 from wells by inverting plate to remove liquid. Wash 1× with dH2O. Pat the plate on a paper towel to remove excess liquid.
as §1, §2
5. Dilute lysate in PBS (7 μg lysate/100 μl PBS).
as §3, §4
8. Add 120 μl TBS to ELISA plate containing captured EGFR.
9. Dilute test compound 1:10 in TBS in 96-well polypropylene plates (ie. 10 μl compound+90 μl TBS).
10. Add 13.5 μl diluted test compound to ELISA plate.
as §5
13. After 5 minutes, stop reaction by adding 16.5 μl of 200 mM EDTA (pH 8.0) to each well, shaking continuously. After the EDTA has been added, shake for 1 min.
as §6
15. Add 100 μl anti-phosphotyrosine (1:3000 dilution.in TBST) per well. Incubate 30-45 min. at room temperature, with shaking.
as §7
17. Add 100 μl Biosource Goat anti-rabbit IgG peroxidase conjugate (1:2000 dilution in TBST) to each well. Incubate 30 min. at room temperature, with shaking.
as §8, §9
20. Incubate 5 to 10 minutes with shaking. Remove any bubbles.
as §10
22. Read assay on Dynatech MR7000 ELISA reader. Test Filter: 410 nM Reference Filter: 630 nM

[4] = 50% inhibition of target PTK activity, read-out: bio PDGFR IC50
[5] = 50% inhibition of target PTK activity, read-out: Pyk2 IC50
[6] = bio PDGFR IC50, 50% inhibition of target PTK activity

T1 sequence (P09619 33-1106, species assumed): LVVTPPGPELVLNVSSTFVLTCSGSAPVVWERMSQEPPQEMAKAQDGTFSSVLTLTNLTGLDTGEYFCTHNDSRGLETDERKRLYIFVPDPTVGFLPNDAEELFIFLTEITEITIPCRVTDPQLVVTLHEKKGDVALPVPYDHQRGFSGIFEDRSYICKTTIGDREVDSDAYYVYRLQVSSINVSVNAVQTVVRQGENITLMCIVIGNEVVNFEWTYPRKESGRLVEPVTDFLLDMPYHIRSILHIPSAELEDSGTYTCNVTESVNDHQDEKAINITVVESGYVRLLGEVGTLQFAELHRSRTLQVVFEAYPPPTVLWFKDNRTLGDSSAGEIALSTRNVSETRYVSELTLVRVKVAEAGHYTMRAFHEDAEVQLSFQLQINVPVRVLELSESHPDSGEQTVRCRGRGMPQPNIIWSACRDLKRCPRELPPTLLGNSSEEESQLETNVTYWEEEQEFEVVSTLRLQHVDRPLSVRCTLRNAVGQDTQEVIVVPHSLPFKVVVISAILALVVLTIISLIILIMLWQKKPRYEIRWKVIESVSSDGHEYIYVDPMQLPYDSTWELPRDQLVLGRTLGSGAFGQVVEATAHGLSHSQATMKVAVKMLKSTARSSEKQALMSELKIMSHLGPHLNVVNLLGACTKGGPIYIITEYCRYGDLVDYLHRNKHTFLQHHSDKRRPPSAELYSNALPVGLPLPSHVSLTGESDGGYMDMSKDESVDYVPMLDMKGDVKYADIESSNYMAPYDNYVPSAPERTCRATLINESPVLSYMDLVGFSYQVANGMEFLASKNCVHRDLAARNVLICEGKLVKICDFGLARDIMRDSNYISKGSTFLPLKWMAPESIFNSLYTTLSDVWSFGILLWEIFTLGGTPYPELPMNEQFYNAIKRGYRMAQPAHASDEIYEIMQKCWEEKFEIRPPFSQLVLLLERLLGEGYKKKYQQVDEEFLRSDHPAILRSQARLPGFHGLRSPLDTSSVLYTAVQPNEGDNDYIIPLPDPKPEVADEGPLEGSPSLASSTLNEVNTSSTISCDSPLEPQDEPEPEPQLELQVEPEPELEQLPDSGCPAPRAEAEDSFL
Sequence of EGFR (P00533 25-1210): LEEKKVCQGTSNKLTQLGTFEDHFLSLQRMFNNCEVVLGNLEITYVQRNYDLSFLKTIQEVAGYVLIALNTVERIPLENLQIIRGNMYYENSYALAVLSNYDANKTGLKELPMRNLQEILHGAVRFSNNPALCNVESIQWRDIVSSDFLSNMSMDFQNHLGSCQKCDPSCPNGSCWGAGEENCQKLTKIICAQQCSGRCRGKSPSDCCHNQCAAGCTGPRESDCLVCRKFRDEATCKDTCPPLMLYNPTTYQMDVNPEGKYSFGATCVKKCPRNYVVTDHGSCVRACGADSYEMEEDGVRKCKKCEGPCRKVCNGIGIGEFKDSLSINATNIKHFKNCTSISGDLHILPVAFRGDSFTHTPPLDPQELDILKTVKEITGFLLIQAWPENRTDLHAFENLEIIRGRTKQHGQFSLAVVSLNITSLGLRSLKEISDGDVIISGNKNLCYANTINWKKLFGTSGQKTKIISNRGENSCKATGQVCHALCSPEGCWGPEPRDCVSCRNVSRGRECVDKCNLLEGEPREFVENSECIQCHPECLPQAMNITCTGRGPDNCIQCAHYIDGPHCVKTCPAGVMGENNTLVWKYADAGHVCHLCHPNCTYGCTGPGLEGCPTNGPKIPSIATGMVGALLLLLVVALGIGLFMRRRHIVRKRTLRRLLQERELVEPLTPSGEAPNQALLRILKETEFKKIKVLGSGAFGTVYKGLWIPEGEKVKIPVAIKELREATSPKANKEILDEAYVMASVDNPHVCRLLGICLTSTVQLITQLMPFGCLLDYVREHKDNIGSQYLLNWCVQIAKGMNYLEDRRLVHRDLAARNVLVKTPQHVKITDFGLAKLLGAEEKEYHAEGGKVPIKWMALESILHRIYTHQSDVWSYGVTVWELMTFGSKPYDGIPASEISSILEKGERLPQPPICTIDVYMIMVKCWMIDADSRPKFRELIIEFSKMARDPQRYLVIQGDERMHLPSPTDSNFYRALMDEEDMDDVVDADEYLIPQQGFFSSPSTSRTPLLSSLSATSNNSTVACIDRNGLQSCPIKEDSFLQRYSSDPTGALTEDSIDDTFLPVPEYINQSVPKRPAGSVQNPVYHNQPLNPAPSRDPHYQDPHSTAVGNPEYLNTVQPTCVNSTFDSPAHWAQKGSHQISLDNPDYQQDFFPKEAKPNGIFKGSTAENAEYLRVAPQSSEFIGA
Sequence of Pyk2 (Q14289 whole entry, species assumed): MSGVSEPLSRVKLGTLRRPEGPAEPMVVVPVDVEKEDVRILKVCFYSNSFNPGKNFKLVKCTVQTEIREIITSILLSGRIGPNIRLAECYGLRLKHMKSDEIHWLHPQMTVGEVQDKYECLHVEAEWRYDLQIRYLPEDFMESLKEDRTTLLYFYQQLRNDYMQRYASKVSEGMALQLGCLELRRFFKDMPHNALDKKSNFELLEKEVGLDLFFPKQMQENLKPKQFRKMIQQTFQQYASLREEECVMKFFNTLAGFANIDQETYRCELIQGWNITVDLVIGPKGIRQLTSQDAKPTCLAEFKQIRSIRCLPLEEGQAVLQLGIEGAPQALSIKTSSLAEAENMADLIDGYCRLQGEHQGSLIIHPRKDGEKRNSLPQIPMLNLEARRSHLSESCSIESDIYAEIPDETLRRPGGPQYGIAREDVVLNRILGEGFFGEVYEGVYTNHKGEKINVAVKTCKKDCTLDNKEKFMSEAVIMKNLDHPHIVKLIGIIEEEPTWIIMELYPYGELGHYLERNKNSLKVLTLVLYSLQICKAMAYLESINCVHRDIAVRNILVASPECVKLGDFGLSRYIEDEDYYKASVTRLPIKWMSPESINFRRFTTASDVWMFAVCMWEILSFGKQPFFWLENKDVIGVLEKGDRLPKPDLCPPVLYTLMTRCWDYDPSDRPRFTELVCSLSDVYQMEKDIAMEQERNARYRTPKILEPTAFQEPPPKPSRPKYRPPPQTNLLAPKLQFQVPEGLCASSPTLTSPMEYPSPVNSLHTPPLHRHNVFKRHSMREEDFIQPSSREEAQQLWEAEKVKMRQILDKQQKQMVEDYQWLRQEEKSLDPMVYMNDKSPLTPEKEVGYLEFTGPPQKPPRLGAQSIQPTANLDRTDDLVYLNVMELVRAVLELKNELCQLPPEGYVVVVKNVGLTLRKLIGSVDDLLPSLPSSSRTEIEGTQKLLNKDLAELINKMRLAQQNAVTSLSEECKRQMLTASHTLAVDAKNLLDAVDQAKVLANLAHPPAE

What does the source list for `COc1ccc2c(c1)C(CC(=O)O)C/C2=C1/C(=O)Nc2ccccc21` (centres unmarked) [Compound 11, [6-Methoxy-3-(2-oxo-1,2-dihydroindol-3-ylidene)-indan-1-yl]acetic Acid]?
IC50 [1, 4]: 1.5 µM; IC50 [2, 5]: 9.3 µM; IC50 [3]: > 100 µM

With `CN(C)c1ccc2c(c1)CC/C2=C1/C(=O)Nc2ccccc21` [Compound 5, 3-(5-Dimethylaminoindan-1-ylidene)-1,3-dihydroindol-2-one] as the molecule, how does the IC50 [1, 4] read?
Its IC50 is 50.8 µM.

And the IC50 [2, 5]?
The IC50 was 79.3 µM.

What about the IC50 [3] of the same molecule?
Its IC50 is over 100 µM.

How did the IC50 [1, 4] turn out when `COc1cc2c(cc1OC)/C(=C1\C(=O)Nc3ccccc31)CC2` [Compound 12, 3-(5,6-Dimethoxyindan-1-ylidene)-1,3-dihydroindol-2-one] was run?
The IC50 was over 25 µM.

What about the “Pyk2, outcome of primary assay” value [2] of the same molecule?
Its value is “DNH”.

What about the IC50 [3] of the same molecule?
Its IC50 is over 25 µM.

How did the IC50 [1, 6] turn out when `COc1ccc2c(c1)CC/C2=C1/C(=O)Nc2ccccc21` [Compound 3, 3-(5-Methoxyindan-1-ylidene)-1,3-dihydroindol-2-one] was run?
The IC50 was 86.9 µM.

What about the “Pyk2 % Inh” value ([2]; concentration not given) of the same molecule?
Its value is 56%.

What about the “Pyk2, outcome of primary assay” value [2] of the same molecule?
Its value is “DNH”.

And the IC50 [3]?
The IC50 was over 100 µM.

What does the source list for `COc1ccc2c(c1)C(CC(=O)[O-])CC2=C1C(=O)Nc2ccccc21.[Na+]` (centres unmarked) [Compound 13, [6-Methoxy-3-(2-oxo-1,2-dihydroindol-3-ylidene)-indan-1-yl]acetic Acid Sodium Salt]?
IC50 [1, 6]: 1 µM and 3.2 µM; IC50 [2]: 4.5 µM; IC50 [3]: > 100 µM

How did the IC50 [1, 4] turn out when `O=C1Nc2ccccc2/C1=C1\CCc2cc(Cl)ccc21` [Compound 7, 3-(5-Chloroindan-1-ylidene)-1,3-dihydroindol-2-one] was run?
The IC50 was over 100 µM.

And the “Pyk2, outcome of primary assay” value [2]?
Its value is “DNH”.

And the IC50 [3]?
Its IC50 is over 100 µM.

`O=C1Nc2ccccc2/C1=C1\CCc2cc(N3CCCCC3)ccc21` [Compound 8, 3-(5-Piperidin-1-yl-indan-1-ylidene)-1,3-dihydroindol-2-one] was tested. Which IC50 [1, 4] did it give?
The IC50 was over 100 µM.

And the “Pyk2, outcome of primary assay” value [2]?
The value was “DNH”.

What about the IC50 [3] of the same molecule?
The IC50 was over 100 µM.

Which results are given for `O=C1Nc2ccccc2/C1=C1\CCc2cc(Br)ccc21` [Compound 9, 3-(5-Bromoindan-1-ylidene)-1,3-dihydroindol-2-one]?
IC50 [1, 4]: > 100 µM; IC50 [3]: > 100 µM

Which IC50 [1, 4] does the source give for `O=C1Nc2ccccc2/C1=C1\CCc2ccccc21` [Compound 10, 3-Indan-1-ylidene-1,3-dihydroindol-2-one] here?
Its IC50 is 63.7 µM.

And the IC50 [3]?
Its IC50 is over 100 µM.

With `CC1C/C(=C2/C(=O)Nc3ccccc32)c2ccccc21` (centres unmarked) [Compound 1, 3-(3-methylindan-1-ylidene)-1,3-dihydroindol-2-one] as the molecule, how does the IC50 [1, 4] read?
Its IC50 is over 100 µM.

What about the IC50 [2, 5] of the same molecule?
Its IC50 is over 100 µM.

And the IC50 [3]?
The IC50 was over 100 µM.

Which IC50 [1, 4] does the source give for `Cc1cccc2c1CC/C2=C1/C(=O)Nc2ccccc21` [Compound 2, 3-(4-Methylindan-1-ylidene)-1,3-dihydroindol-2-one] here?
Its IC50 is over 100 µM.

What about the “Pyk2, outcome of primary assay” value [2] of the same molecule?
The value was “DNH”.

What about the IC50 [3] of the same molecule?
Its IC50 is over 100 µM.
